Values of other authors as cited in US8691198B2, “Environmentally benign plasticizers based on derivatives of acetone” (priority 2010, dated 2014).
Read-outs that look alike come from different tables or passages of the source.

How the values were obtained:
[1] = test system: rat
[2] = degradation through oxidation forming phosphoric acid and the corresponding alcohols

OCC1(O)COC(O)(CO)CO1 (centres unmarked) [1,3-dihydroxyacetone dimer]
LD50 (oral, rat) ([1]; oral): sixty thousand

CCCC(=O)O [Butyric acid]
LD50(rat) ([1]; left half of Table 1): 2940 mg/kg

CCCCCC(=O)O [Caproic acid]
LD50(rat) × ([1]; right half of Table 1): 3000 mg/kg

CCCCCCCC(=O)O [Caprylic acid]
LD50(rat) × ([1]; in vivo): 600 mg/kg

CC(CC(C)(C)C)CP(=O)(O)CC(C)CC(C)(C)C (centres unmarked) [Cyanex 272, Bis-(2,4,4-trimethylpentyl) phosphinic acid, reference compound]
biodegradability [2]: biodegradable
LD50(rat) [1]: 3500 mg/kg

CCCCCCC(=O)O [Heptanoic Acid]
LD50(rat) × ([1]; right half of Table 1): 7000 mg/kg

CCCCC(=O)O [Pentanoic Acid]
LD50(rat) ([1]; in vivo): 1844 mg/kg
